Results from patent US6787547B2, “Compound and method for the treatment of pain” (Astrazeneca AB, priority 1999, dated 2004).

What was measured:
[1] = target: T1, NMDA receptor glycine site (Rattus norvegicus, UniProt P35439); experiment: Test A: Inhibition of binding of [3H]-MDL105,519, rat brain membranes; conditions: 1.2 nM [3H]MDL105,519
T1 construct: The rat brain membranes used in the experiments were obtained from Analytical Biological Services Inc; tissue Analytical Biological Services Inc; host or cells: rat brain (cerebral cortex and hippocampus) membranes
Procedure: (§1) Test A: Inhibition of Binding of [^3H]-MDL105,519
The rat brain membranes used in the experiments were obtained from Analytical Biological Services Inc., and were prepared substantially in accordance with the method of B. M. Baron et al., J. Pharmacol. Exp. Ther. 250, 162 (1989). Briefly, fresh brain tissue including cerebral cortex and hippocampus from male Sprague Dawley rats was homogenized in 0.32 M sucrose and centrifuged at low speed to separate cellular membranes from other cellular components. The membranes were then washed 3 times using deionized water, followed by treatment with 0.04% Triton X-100. Finally, membranes were washed six times in 50 mM Tris citrate buffer, pH 7.4, and frozen at −80° C. until use.
[^3H]MDL105,519 (72 Ci/mmol) was purchased from Amersham. Cold MDL105,519 was purchased from Sigma/RBI. Binding assays were performed substantially in accordance with the protocol of B. M. Baron et al, J. Pharmacol. Exp. Ther. 279, 62 (1996), as follows. […] Non specific binding was determined by using 100 μM of unlabeled MDL105,519. […] The plates were dried overnight at room temperature and bound radioactivity was measured on a Packard TopCount after the addition of 45 μL per well of the MICROSCINT O. Potency of a compound is expressed as the Ki and results were calculated using Microsoft Excel spreadsheet and GraphPad Prizm software.

[2] = target: T2, NMDA receptor glycine site (Homo sapiens, UniProt Q05586); experiment: Test A: Inhibition of binding of [3H]-MDL105,519, human brain membranes
T2 construct: Human brain membranes were obtained from Analytical Biological Services Inc; tissue Analytical Biological Services Inc; host or cells: human brain membranes
Procedure: as §1
[^3H]MDL105,519 (72 Ci/mmol) was purchased from Amersham. Cold MDL105,519 was purchased from Sigma/RBI. Binding assays were performed substantially in accordance with the protocol of B. M. Baron et al, J. Pharmacol. Exp. Ther. 279, 62 (1996), as follows. On the day of the experiment, brain membranes were thawed at room temperature and suspended in 50 mM tris acetate buffer, pH 7.4 (“TAB”). Seventy-five micro grams per milliliter protein (by using the BioRad dye) were used for competition binding. The experiments were carried out using 96-well plates. Membranes were incubated with 20 μL of compounds of various concentrations and 1.2 nM [^3H]MDL105,519 for 30 minutes at room temperature in a total volume of 250 μL. Non specific binding was determined by using 100 μM of unlabeled MDL105,519. The unlabeled MDL105,519 and compounds were dissolved as 12.5 mM stock solutions in DMSO. Final DMSO concentration in each well was kept below 1%, which concentration was found not to alter the binding results. […] The plates were dried overnight at room temperature and bound radioactivity was measured on a Packard TopCount after the addition of 45 μL per well of the MICROSCINT O. Potency of a compound is expressed as the Ki and results were calculated using Microsoft Excel spreadsheet and GraphPad Prizm software. […]

[3] = tested on: formalin-induced nociceptive behaviors in rats; experiment: Test B: Formalin test (formalin-induced nociceptive behaviors); assay type: in vivo, rat
Excerpt: The Formalin test assesses the inhibitory effects of orally administered compounds on formalin-induced nociceptive behaviors in rats (D. Dubuisson, et al., Pain 4, 161-174 (1977); H. Wheeler-Aceto et al., Psychopharmacology 104, 35-44 (1991); T. J. Coderre, et al, Pain 54, 43-50 (1993)). In the test two distinctive phases of formalin-induced behaviors are detected. A first phase response, caused by acute nociception to the noxious chemical (formalin) injected into the paw, occurs between 0 to 5 minutes. A quiescent period of between 5 to 15 min post injection follows. After the quiescent period a second phase response, caused by sensitization of the central neurons in the dorsal horn, occurs after 15 minutes and lasts up to 60 minutes. Central sensitization augments a noxious afferent input causing a stronger pain barrage to be transmitted to the brain. Inhibition of the second phase response indicates a spinal mechanism of drug action.
The procedure for the formalin test is as follows: male rats are placed in a plexiglass chamber and observed for 30-45 min. to observe their baseline activity. […] The number of paw flinches (responses) during first phase (0-5 min.) and second phase (20-35 min.) are scored and recorded. Flinch response is calculated as percentage of inhibition compared with the mean score of a saline control group. […]

[4] = tested on: CCI rats, heat hyperalgesia; experiment: Test C: Neuropathic pain model (Chronic Constriction Injury), thermal hyperalgesia; assay type: in vivo, rat
Procedure: Test C: Neuropathic Pain Model (Chronic Constriction Injury)
Dose response studies are conducted with multiple groups of CCI rats dosed orally with either vehicle or the test compound three times daily with either vehicle or the test compound for 5 days. […] Efficacy is calculated as mean percentage decrease of hyperalgesia over 5 dosing days compared to vehicle-treated group. Compound potencies are expressed as the minimum effective dose (MED) in mg/Kg/day that yields a % decrease in hyperalgesia that is statistically significant, where the anti-hyperalgesic effect is determined as follows:
% of anti-hyperalgesia=(Mean of vehicle group−Mean of compound group)×100 (Mean of vehicle group)
Data analysis was performed by multiple means comparison (Dunnett's test).

[5] = tested on: NMDA induced behavior/seizure; experiment: Inhibition of NMDA induced behavior/seizure after intrathecal injection; assay type: in vivo; parameters: unit not given here
[6] = tested on: panel of more than 80 non-NMDA receptors; experiment: Binding to a panel of more than 80 non-NMDA receptors
Procedure: The compound of the invention was also tested for binding to a panel of more than 80 non-NMDA receptors.

`Cc1ccc(-n2nc(O)c3nc4cc(Cl)ccc4c(O)c3c2=O)c(Cl)c1` [compound of the invention, 7-chloro-4-hydroxy-2-(2-chloro-4-methylphenyl)-1,2,5,10-tetrahydropyridazino[4,5-b]quinoline-1,10-dione] gave a Ki [1] of 0.056 µM, a Ki [2] of 0.05 µM and an ED50 ([3]; Rattus norvegicus, po, read-out: Efficacy in formalin pain model, ED50) of roughly 100 mg/kg. The “Minimal effective dose / dose required, CCI model of neuropathic pain” value [4] was “less than 2 mg/Kg/day”, the “MED (minimum effective dose), CCI model of neuropathic pain” value ([4]; oral, three times daily for 5 days) was “MED < 2 mg/Kg/d” and the “ED50 for inhibition of development of NMDA induced behavior/seizure” value [5] was 110. For the same compound, the “Interaction with non-NMDA receptors” value [6] was “no significant interaction”.

With `NCC1(CC(=O)O)CCCCC1` [gabapentin, reference compound] the “Efficacy in formalin pain model, ED50” value ([3]; rats, oral, dosed 3 hours prior to formalin, dose producing 50% inhibition of nociceptive response) was “comparable”, the “Minimal effective dose / dose required, CCI model of neuropathic pain” value [4] was “about 90 mg/Kg/day” and the “% anti-hyperalgesia in CCI model of neuropathic pain, heat hyperalgesia” value ([4]; oral, three times daily for 5 days, at the stated effective dose) was “about 46%”.
